# Results: patent publication US4914215A, “Aminopropyl thiophene compounds” (The United States of America as represented by the United …, priority 1989, dated 1990)
# Experiments:
# [1] = system: brain; experiment: Tissue distribution of 5-halothiophene-2-isopropylamines in Fisher rats; format: in vivo; settings: in words
# Description: 5-HALOTHIOPHENE-2-ISOPROPYLAMINES
# Mean Brian. % Dose/gm (Mean Brain:Blood)
# [2] = system: brain; settings: five minutes after administration; versus HIPDM; cited from earlier work
# [3] = system: lungs; settings: versus HIPDM; cited from earlier work
SMILES,brain retention [1],brain uptake [1],brain-to-blood ratios [1],amount of activity in the brain relative to HIPDM [2],clearance of the lungs relative to HIPDM [3]
"CC(N)Cc1ccc([82Br])s1 (stereo not shown) [Br-82, 2-(2-aminopropyl)-5-bromothiophene]",good brain uptake and retention,good brain uptake,–,–,–
"CC(N)Cc1ccc([125I])s1 (stereo not shown) [Compound I-125, 2-(2-aminopropyl)-5-radiohalothiophene]",good retention,high brain uptake,high brain-to-blood ratios,–,–
"CC(C)NC(C)Cc1ccc(I)cc1 (stereo not shown) [IMP, N-isopropyl-p-iodoamphetamine]",–,–,–,almost twice,faster
